From patent US20250236614A1, “BICYCLIC TETRAHYDROAZEPINE DERIVATIVES” (Hoffmann-La Roche Inc., priority 2022, published 2025)

Assays:
MV-3 RFP cells = assay: T-cell TCB MV3 killing assay; assay type: cell-based, human; settings: isomer A; for Emax: Homo sapiens, MV-3, 120 h, read-out: MSCP TCB killing MV-3 cells 5 d Emax (%); for EC50: primary human T-cells + MCSP-TCB on MV-3 RFP cells, imaging over 120 hours, read-out: MSCP TCB killing MV-3 cells 5 d EC50
Experimental: All culturing steps are executed at 5% CO2, 37° C. and 95% humidity.
MV-3 RFP cells are cultured in MV-3 medium (DMEM+10% FBS, 1× PenStrep and 0.5 μg/mL Puromycin) for at least 3 weeks. Cultured MV-3 cells at 80% confluency are washed once with PBS−− and trypsinized until detached. Cells are then counted and resuspended to 1*10^5 cells/mL in T-cell medium (RPMI 1640+5% human serum+1 mM Sodium Pyruvate+50 μM 2-mercaptoethanol and 1× Pen-Strep). Cells are seeded with 100 μL/well into a 96-well plate (TTP, #92696), and placed for 40 minutes without moving at room temperature in order to achieve evenly distributed attachment of cells. Plates are then incubated until further use.
On the next day, expanded primary human T-cells are thawed and resuspended in T-cell medium to 4*10^6 cells/mL. For 3 hours, they are cultured in a 6-well plate with 6 mL per well at maximum. After culturing the T-cells, they are filtered through a cell strainer (Miltenyi Biotech, #130-041-407), counted again, and cell concentration is adjusted to 2*10^6 cells/mL.
MCSP-TCB or PBS are pre-diluted in T-cell medium (concentration depending on T-cell donor), 4 times more concentrated than the end-concentration. 60 μL/well of pre-dilutions are then distributed into a round bottom plate (Costar, #3799) according to plate layout. Compounds are added in a 9 pt dose response with the Tecan D300e Digital Dispenser, as well 4 times more concentrated than the end-concentration. DMSO concentration of all wells is adjusted to 0.8%, resulting in 0.2% as final concentration.
60 μL per well of T-cell suspension are added to the prepared round bottom plate and resuspended with a manual multichannel. 100 μL/well of the resuspended T-cell suspension including treatments are then transferred cautiously to the over-night cultured MV-3 cells according to plate layout. 100 μL T-cell medium only is added to the outer MV-3 wells only. Final compound DR is starting at 20 μM with a dilution factor of 3.333. Final TCB concentration is between […] and was determined for each T-cell donor individually by running TCB titrations. For each donor, a TCB concentration was chosen which corresponds to 10-20% of MV3 baseline cell killing in the absence of compound treatment. Positive control is the reference compound A1 which is added in a DR, as well as additional wells with only 20 μM. 20 μM of reference compound A1 represent the positive stimulator control, TCB only (DMSO wells) the neutral control.
After transfer of T-cells with treatment pre-dilutions, MV-3 cells are imaged by time-lapse microscopy using IncucyteZOOM™ (Essen BioScience, MI, USA). Imaging is performed every 3 hours for a total of 120 hours (10× objective, phase and red image channels, acquisition time 400 ms, Green/Red 4614 optical module). RFP object count per well is analysed in the IncucyteZOOM™ Software (Version 2019B Rev2) with a mask that was previously created and optimized for MV-3 cells. Raw data is exported as object count/well and values are normalized as % TCL compared to wells with MV-3 only, representing 100% growth and therefore 0% TCL.
Calculated 00 TCL values are analysed in Genedata Screener using Roche Normalization PCT_POS_CTRL with MCSP-TCB only set as Neutral Control and 20 μM of the reference compound A1 set as Stimulator Control/100%.
Induced TCL by compounds without TCB treatment or toxicity (observed in the PBS condition) were be flagged.

DGK ζ kinase = DGK ζ kinase (Homo sapiens, UniProt Q13574); assay: In vitro DGK inhibition assay (ADP Glo) run by Reaction Biology Corp., DGK zeta; assay type: biochemical; settings: isomer A, 2 nM kinase, 50 μM ATP, 500 uM DLG, 10-dose, 3-fold dilution starting at 1 μM, read-out: DGKzeta IC50
Chain of DGK ζ kinase (Q13574 whole entry): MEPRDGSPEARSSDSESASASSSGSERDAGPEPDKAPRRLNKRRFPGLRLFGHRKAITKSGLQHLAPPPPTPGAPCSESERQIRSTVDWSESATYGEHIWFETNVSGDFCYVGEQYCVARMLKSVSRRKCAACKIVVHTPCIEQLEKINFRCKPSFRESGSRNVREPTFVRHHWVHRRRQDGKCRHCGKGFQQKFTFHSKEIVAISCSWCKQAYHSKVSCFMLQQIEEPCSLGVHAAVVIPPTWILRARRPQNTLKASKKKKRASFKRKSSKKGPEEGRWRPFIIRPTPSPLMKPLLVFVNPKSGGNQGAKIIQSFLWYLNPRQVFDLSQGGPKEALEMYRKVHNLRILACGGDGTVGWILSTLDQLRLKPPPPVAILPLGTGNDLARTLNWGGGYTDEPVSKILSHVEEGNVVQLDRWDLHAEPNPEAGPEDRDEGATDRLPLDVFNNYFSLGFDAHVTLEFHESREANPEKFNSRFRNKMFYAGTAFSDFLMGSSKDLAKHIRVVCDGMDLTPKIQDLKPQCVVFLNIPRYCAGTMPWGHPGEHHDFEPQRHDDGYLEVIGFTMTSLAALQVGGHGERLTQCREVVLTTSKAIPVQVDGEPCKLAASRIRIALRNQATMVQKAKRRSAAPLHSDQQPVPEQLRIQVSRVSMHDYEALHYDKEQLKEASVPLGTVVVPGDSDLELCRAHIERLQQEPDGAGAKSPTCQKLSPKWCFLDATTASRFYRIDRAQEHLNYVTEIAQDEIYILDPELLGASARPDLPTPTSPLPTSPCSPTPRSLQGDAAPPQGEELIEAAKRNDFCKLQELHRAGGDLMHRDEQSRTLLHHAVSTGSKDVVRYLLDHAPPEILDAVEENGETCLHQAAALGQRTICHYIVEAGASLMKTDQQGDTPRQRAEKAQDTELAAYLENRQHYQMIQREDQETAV
Experimental: (§1) DGK α and ζ kinase use ATP to phosphorylate the substrate 1,2-dilauroyl-sn-glycerol (DLG). ATP is converted to ADP as a result of this enzymatic reaction.
(§2) After the kinase reaction, an ATP-depletion reagent is added to terminate the kinase reaction and deplete any remaining ATP, leaving only ADP. Second, a detection reagent is added to simultaneously convert ADP to ATP and allow the newly synthesized ATP to be converted to light using a coupled luciferase/luciferin reaction.
(§3) DGK α and ζ kinase ADP Glo assays were ran by Reaction Biology Corp., 1 Great Valley Parkway, Suite 2, Malverm, 19355, PA, USA. Information provided by the service provider are the following: DGK α and ζ kinases were used at 2 nM final concentration. Reactions were carried out at 50 μM ATP. 500 uM of the substrate DLG (Dilauroyl-sn-glycerol) was used. Compounds were received at 10 mM DMSO stock solution and were tested in 10-dose IC50 duplicate with 3-fold serial dilution starting at 1 μM. A control compound, Calphostin C, was tested in 10-dose IC50 with 3-fold serial dilution starting at 100 μM.

DGK α kinase = DGK α kinase (Homo sapiens, UniProt P23743); assay: In vitro DGK inhibition assay (ADP Glo) run by Reaction Biology Corp., DGK alpha; assay type: biochemical; settings: isomer A, 2 nM kinase, 50 μM ATP, 500 uM DLG, 10-dose, 3-fold dilution starting at 1 μM, read-out: DGKalpha IC50
Chain of DGK α kinase (P23743 whole entry): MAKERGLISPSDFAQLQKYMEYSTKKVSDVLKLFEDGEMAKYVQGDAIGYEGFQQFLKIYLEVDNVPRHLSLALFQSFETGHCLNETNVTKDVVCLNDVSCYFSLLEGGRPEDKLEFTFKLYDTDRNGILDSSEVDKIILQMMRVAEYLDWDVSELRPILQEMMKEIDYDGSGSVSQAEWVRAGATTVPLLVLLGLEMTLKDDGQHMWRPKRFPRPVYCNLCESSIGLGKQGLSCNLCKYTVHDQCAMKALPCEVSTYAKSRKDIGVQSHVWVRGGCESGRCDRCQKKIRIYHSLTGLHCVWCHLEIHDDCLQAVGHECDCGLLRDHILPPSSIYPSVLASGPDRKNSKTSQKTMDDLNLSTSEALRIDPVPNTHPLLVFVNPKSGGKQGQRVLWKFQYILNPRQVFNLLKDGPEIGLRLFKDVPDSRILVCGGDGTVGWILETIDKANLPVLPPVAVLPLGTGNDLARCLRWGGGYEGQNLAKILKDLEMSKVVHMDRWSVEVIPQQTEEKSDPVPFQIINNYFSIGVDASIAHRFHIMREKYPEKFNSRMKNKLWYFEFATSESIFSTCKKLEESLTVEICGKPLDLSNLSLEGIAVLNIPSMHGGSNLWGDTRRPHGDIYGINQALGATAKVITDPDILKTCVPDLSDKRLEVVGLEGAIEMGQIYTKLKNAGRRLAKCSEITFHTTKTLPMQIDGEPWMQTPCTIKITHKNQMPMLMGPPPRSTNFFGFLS
Experimental: as §1, §2, §3

[1] = 20 μM reference compound A1 = 100%, MCSP-TCB only neutral control

Compound | IC50 (DGK ζ kinase) | IC50 (DGK α kinase) | Emax (MV-3 RFP cells; [1]) | EC50 (MV-3 RFP cells) | MSCP TCB killing MV-3 cells 5 d Emax (%) (MV-3 RFP cells; [1])
CC(C)(c1nnc(-c2cc3c(cc2F)C(F)(F)C[C@@H](N)C(=O)N3Cc2ccc(-c3ccc(C(F)(F)F)cn3)cc2)o1)S(C)(=O)=O (single isomer, unassigned) [Example 8] | – | – | 100% | – | –
CC(C)(c1nnc(-c2cc3c(cc2F)C(F)(F)C[C@@H](N)C(=O)N3Cc2ccc(-c3noc(C(F)(F)F)n3)cc2)o1)S(C)(=O)=O (single isomer, unassigned) [Example 16] | – | – | 84% | – | –
N[C@@H]1CC(F)(F)c2cc(F)c(-c3nnc(N4CCOC5(CC5)C4)o3)cc2N(Cc2ccc(-c3noc(C(F)(F)F)n3)cc2)C1=O (single isomer, unassigned) [Example 17] | – | – | 105% | – | –
CC(C)(C#N)c1nnc(-c2cc3c(cc2F)C(F)(F)C[C@@H](N)C(=O)N3Cc2ccc(-c3ccc(OC(F)F)cn3)cc2)o1 (single isomer, unassigned) [Example 41] | – | – | 98% | – | –
COC(F)(c1nnc(-c2cc3c(cc2F)C(F)(F)C[C@H](N)C(=O)N3Cc2ccc(OC(F)(F)F)cc2)o1)C(F)(F)F (single isomer, unassigned) [Example 4] | – | – | 94% | 69 nM | –
N[C@@H]1CC(F)(F)c2cc(F)c(-c3nnc(N4CCCC4)o3)cc2N(Cc2ccc(-c3noc(C(F)(F)F)n3)cc2)C1=O (single isomer, unassigned) [Example 14] | – | – | 113% | – | –
CC(C)(C#N)c1nnc(-c2cc3c(cc2F)C(F)(F)CC(N)C(=O)N3Cc2ccc(-n3cc(C(F)(F)F)cn3)cc2)o1 (racemic) [Example 33, 2-[5-[(3S)-3-amino-5,5,7-trifluoro-2-oxo-1-[[4-[4-(trifluoromethyl)pyrazol-1-yl]phenyl]methyl]-3,4-dihydro-1-benzazepin-8-yl]-1,3,4-oxadiazol-2-yl]-2-methyl-propanenitrile and 2-[5-[(3R)-3-amino-5,5,7-trifluoro-2-oxo-1-[[4-[4-(trifluoromethyl)pyrazol-1-yl]phenyl]methyl]-3,4-dihydro-1-benzazepin-8-yl]-1,3,4-oxadiazol-2-yl]-2-methyl-propanenitrile] | 80.3 nM | 8.2 nM | – | – | –
2-methyl-2-[5-[(3S)-3-amino-5,5,7-trifluoro-2-oxo-1-[[4-(trifluoromethoxy)phenyl]methyl]-3,4-dihydro-1-benzazepin-8-yl]-1,3,4-oxadiazol-2-yl]propanenitrile and 2-methyl-2-[5-[(3R)-3-amino-5,5,7-trifluoro-2-oxo-1-[[4-(trifluoromethoxy)phenyl]methyl]-3,4-dihydro-1-benzazepin-8-yl]-1,3,4-oxadiazol-2-yl]propanenitrile [Example 2] | 22.1 nM | 10.5 nM | – | 43 nM | 93%

The next lines start with results.

IC50 (DGK ζ kinase) | IC50 (DGK α kinase) | Compound | Emax (MV-3 RFP cells; [1]) | EC50 (MV-3 RFP cells) | MSCP TCB killing MV-3 cells 5 d Emax (%) (MV-3 RFP cells; [1])
136 nM | 46.2 nM | CC(F)(F)c1ccc(-c2ccc(CN3C(=O)[C@H](N)CC(F)(F)c4cc(F)c(-c5nnc(C(C)(C)C#N)o5)cc43)cc2)nc1 (single isomer, unassigned) [Example 37] | – | – | –
57.9 nM | 124 nM | CC(C)(c1nnc(-c2cc3c(cc2F)C(F)(F)CC(N)C(=O)N3Cc2ccc(Oc3ccccc3)cc2)o1)S(C)(=O)=O (racemic) [Example 5, (3S)-3-amino-5,5,7-trifluoro-8-[5-(1-methyl-1-methylsulfonyl-ethyl)-1,3,4-oxadiazol-2-yl]-1-[(4-phenoxyphenyl)methyl]-3,4-dihydro-1-benzazepin-2-one and (3R)-3-amino-5,5,7-trifluoro-8-[5-(1-methyl-1-methylsulfonyl-ethyl)-1,3,4-oxadiazol-2-yl]-1-[(4-phenoxyphenyl)methyl]-3,4-dihydro-1-benzazepin-2-one] | 130% | 372 nM | –
49.5 nM | 70.3 nM | CC(C)(C)c1nnc(-c2cc3c(cc2F)C(F)(F)C[C@@H](N)C(=O)N3Cc2ccc(OC3CCCC3)cc2)o1 (single isomer, unassigned) [Example 7] | – | – | –
1060 nM | 93.1 nM | COc1ccc(-c2ccc(CN3C(=O)[C@H](N)CC(F)(F)c4cc(F)c(-c5nnc(C(C)(C)S(C)(=O)=O)o5)cc43)cc2)cc1 (single isomer, unassigned) [Example 10] | – | – | –
73 nM | 108 nM | CC(C)(C#N)c1nnc(-c2cc3c(cc2F)C(F)(F)C[C@@H](N)C(=O)N3Cc2ccc(-c3ccc(C(F)(F)F)cn3)cc2)o1 (single isomer, unassigned) [Example 12] | 103% | – | –
32.6 nM | 43.6 nM | COc1ccc(-c2ccc(CN3C(=O)[C@H](N)CC(F)(F)c4cc(F)c(-c5nnc(C(C)(C)C#N)o5)cc43)cc2)cc1 (single isomer, unassigned) [Example 9] | 92% | – | –
